Structures can show the parent of a compound that is named as a salt.
Target: T1, human TRPC6 (Homo sapiens, UniProt Q9Y210)
T1 construct: expressed in transfected cells
T1 sequence (Q9Y210 1-931): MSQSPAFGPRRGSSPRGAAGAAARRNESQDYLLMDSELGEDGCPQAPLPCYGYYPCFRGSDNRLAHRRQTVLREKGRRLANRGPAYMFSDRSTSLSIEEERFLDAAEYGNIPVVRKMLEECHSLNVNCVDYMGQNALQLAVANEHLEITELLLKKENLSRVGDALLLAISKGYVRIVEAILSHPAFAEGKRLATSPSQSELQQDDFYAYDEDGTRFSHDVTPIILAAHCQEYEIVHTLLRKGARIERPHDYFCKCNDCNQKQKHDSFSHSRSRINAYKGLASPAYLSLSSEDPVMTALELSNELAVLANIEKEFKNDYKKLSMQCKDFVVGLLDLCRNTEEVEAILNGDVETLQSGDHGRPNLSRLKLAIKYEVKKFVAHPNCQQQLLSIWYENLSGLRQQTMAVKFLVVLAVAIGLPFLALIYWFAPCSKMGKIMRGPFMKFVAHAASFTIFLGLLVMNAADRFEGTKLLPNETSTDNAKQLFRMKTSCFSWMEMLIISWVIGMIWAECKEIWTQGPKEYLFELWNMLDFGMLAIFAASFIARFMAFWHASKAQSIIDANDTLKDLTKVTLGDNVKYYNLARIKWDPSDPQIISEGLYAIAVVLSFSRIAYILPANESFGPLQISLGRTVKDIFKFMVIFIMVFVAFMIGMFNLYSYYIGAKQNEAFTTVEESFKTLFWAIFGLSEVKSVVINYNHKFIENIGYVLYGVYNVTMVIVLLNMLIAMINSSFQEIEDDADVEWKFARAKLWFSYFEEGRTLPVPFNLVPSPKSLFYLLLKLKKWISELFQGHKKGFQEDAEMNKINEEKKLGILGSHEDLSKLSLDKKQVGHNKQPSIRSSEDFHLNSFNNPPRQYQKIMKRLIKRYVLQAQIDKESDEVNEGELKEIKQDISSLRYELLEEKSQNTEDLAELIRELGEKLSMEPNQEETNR
Assay: TRPC6 calcium flux assay (FLIPR, OAG-stimulated calcium influx)
Assay type: cell-based
Conditions: HEK293 cells stably transfected with human TRPC6, read-out: hTRPC6 Potency
Procedure, shortened: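 HEK293 cells stably expressing human TRPC6, loaded with calcium dye 90–120 min at RT, then given compound for 25 min before OAG (50 uM final, 0.5% DMSO) in HEPES buffer pH 7.2 with 2 mM CaCl2. Background-subtracted FLIPR peak over 180 s normalized to OAG vs buffer; IC50 from dose plot.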

Row | SMILES | IC50 [nM]
1 | CNC(=O)c1ccc(Cn2c(N3CCC[C@@H](N)C3)nc3ccccc32)cc1 [Example 382, (R)-4-((2-(3-aminopiperidin-1-yl)-1H-benzo[d]imidazol-1-yl)methyl)-N-methylbenzamide] | > 50000
2 | N[C@@H]1CCCN(c2nc3ccccc3n2Cc2ccc3ccncc3c2)C1 [Example 293, (R)-1-(1-(isoquinolin-7-ylmethyl)-1H-benzo[d]imidazol-2-yl)piperidin-3-amine] | 2920
3 | C[C@@H](c1ccc(C#N)cc1)n1c(N2CC[C@@H](F)[C@H](N)C2)nc2ccccc21 [Example 320, 4-((S)-1-(2-((3R,4R)-3-amino-4-fluoropiperidin-1-yl)-1H-benzo[d]imidazol-1-yl)ethyl)benzonitrile hydrochloride] | 12
4 | CCC1CN(C(=O)Cn2c(N3CC[C@@H](F)[C@H](N)C3)nc3cc(F)c(F)cc32)CCO1 (stereo partly drawn) [Example 513, 2-(2-((3R,4R)-3-amino-4-fluoropiperidin-1-yl)-5,6-difluoro-1H-benzo[d]imidazol-1-yl)-1-(2-ethylmorpholino)ethan-1-one] | 183
5 | COc1cc(Cl)ccc1Cn1c(N2CC[C@@H](F)[C@H](N)C2)nc2cc(F)c(F)cc21 [Example 350, (3R,4R)-1-(1-(4-chloro-2-methoxybenzyl)-5,6-difluoro-1H-benzimidazol-2-yl)-4-fluoro-3-piperidinamine] | 351
6 | N#Cc1ccc2c(c1)nc(N1CC[C@@H](F)[C@H](N)C1)n2Cc1ccc(F)cn1 [Example 191, 2-((3R,4R)-3-amino-4-fluoropiperidin-1-yl)-1-((5-fluoropyridin-2-yl)methyl)-1H-benzo[d]imidazole-5-carbonitrile] | 140
7 | C[C@H](c1ccc(C#N)cc1)n1c(N2CC[C@@H](F)[C@H](N)C2)nc2ccccc21 [Example 319, 4-((R)-1-(2-((3R,4R)-3-amino-4-fluoropiperidin-1-yl)-1H-benzo[d]imidazol-1-yl)ethyl)benzonitrile hydrochloride] | 456
8 | COc1cccc2c1nc(N1CC[C@@H](F)[C@H](N)C1)n2Cc1ccc(C#N)cn1 [Example 120, 6-((2-((3R,4R)-3-amino-4-fluoro-1-piperidinyl)-4-methoxy-1H-benzimidazol-1-yl)methyl)-3-pyridinecarbonitrile] | 3.21
9 | N[C@@H]1CCCN(c2nc3ccccc3n2Cc2ccc(C(F)F)cc2)C1 [Example 381, (R)-1-(1-(4-(difluoromethyl)benzyl)-1H-benzo[d]imidazol-2-yl)piperidin-3-amine] | 5680
10 | N#Cc1ccc(Cn2c(N3C[C@@H]4OCCN[C@@H]4C3)nc3ccccc32)nc1 [Example 98, 6-((2-((4aR,7aS)-hexahydropyrrolo[3,4-b][1,4]oxazin-6(2H)-yl)-1H-benzo[d]imidazol-1-yl)methyl)nicotinonitrile hydrochloride] | > 3750
11 | N#Cc1cccc(Cn2c(N3CC[C@@H](F)[C@H](N)C3)nc3cc(F)c(F)cc32)c1 [Example 366, 3-((2-((3R,4R)-3-amino-4-fluoro-1-piperidinyl)-5,6-difluoro-1H-benzimidazol-1-yl)methyl)benzonitrile] | 232
12 | N#Cc1ccc(Cn2c(N3CC4CCC(N)C4C3)nc3ccccc32)cc1 (stereo not shown) [Example 169, 4-((2-(4-aminohexahydrocyclopenta[c]pyrrol-2(1H)-yl)-1H-benzo[d]imidazol-1-yl)methyl)benzonitrile] | 14.2
13 | N[C@@H]1CN(c2nc3cc(F)c(F)cc3n2CC(=O)N2CCCC3COCCC32)CC[C@H]1F (stereo partly drawn) [Example 639, 2-(2-((3R,4R)-3-amino-4-fluoropiperidin-1-yl)-5,6-difluoro-1H-benzo[d]imidazol-1-yl)-1-(octahydro-1H-pyrano[4,3-b]pyridin-1-yl)ethanone] | 657
14 | N[C@@H]1CN(c2nc3cc(F)c(F)cc3n2Cc2ccc(Cl)c(F)c2)CC[C@H]1F [Example 360, (3R,4R)-1-(1-(4-chloro-3-fluorobenzyl)-5,6-difluoro-1H-benzimidazol-2-yl)-4-fluoro-3-piperidinamine] | 42.9
15 | N#Cc1ccc2c(c1)CC[C@H]2n1c(N2CC[C@@H](F)[C@H](N)C2)nc2ccccc21 [Example 231, (R)-1-(2-((3R,4R)-3-amino-4-fluoropiperidin-1-yl)-1H-benzo[d]imidazol-1-yl)-2,3-dihydro-1H-indene-5-carbonitrile hydrochloride] | 737
16 | CC(C)N(C)C(=O)C1CCN(C(=O)Cn2c(N3CC[C@@H](F)[C@H](N)C3)nc3cc(F)c(F)cc32)CC1 [Example 542, 1-(2-(2-((3R,4R)-3-amino-4-fluoropiperidin-1-yl)-5,6-difluoro-1H-benzo[d]imidazol-1-yl)acetyl)-N-isopropyl-N-methylpiperidine-4-carboxamide] | > 3750
17 | N[C@@H]1CN(c2nc3cc(F)c(F)cc3n2CC(=O)N2CCCCCCC2)CC[C@H]1F [Example 510, 2-(2-((3R,4R)-3-amino-4-fluoropiperidin-1-yl)-5,6-difluoro-1H-benzo[d]imidazol-1-yl)-1-(azocan-1-yl)ethan-1-one] | 139
18 | N[C@@H]1CCCN(c2nc3ccccc3n2Cc2c(Cl)cccc2Cl)C1 [Example 373, (R)-1-(1-(2,6-dichlorobenzyl)-1H-benzo[d]imidazol-2-yl)piperidin-3-amine] | 5850
19 | Cc1cc(Cn2c(N3CC[C@@H](F)[C@H](N)C3)nc3cc(F)c(F)cc32)ccc1C#N (stereo in doubt) [Example 345, 4-((2-((3R,4R)-3-amino-4-fluoro-1-piperidinyl)-5,6-difluoro-1H-benzimidazol-1-yl)methyl)-2-methylbenzonitrile] | 1.5
20 | COc1ccc2nc(N3CCC[C@H](N)C3)n(Cc3ccc(C#N)cn3)c2c1 [Example 142, (S)-6-((2-(3-aminopiperidin-1-yl)-6-methoxy-1H-benzo[d]imidazol-1-yl)methyl)nicotinonitrile 2,2,2-trifluoroacetate] | 13.8
21 | N[C@@H]1CN(c2nc3ccccc3n2Cc2ccc(Cl)cn2)CC[C@H]1F [Example 211, (3R,4R)-1-(1-((5-chloropyridin-2-yl)methyl)-1H-benzo[d]imidazol-2-yl)-4-fluoropiperidin-3-amine hydrochloride] | 1.09
22 | N[C@@H]1CN(c2nc3cc(F)c(F)cc3n2CC(=O)N2CCCC(O)C2)CC[C@H]1F (mixture of isomers) [Example 628, 2-(2-((3R,4R)-3-amino-4-fluoropiperidin-1-yl)-5,6-difluoro-1H-benzo[d]imidazol-1-yl)-1-(3-hydroxypiperidin-1-yl)ethanone] | 132
23 | N#Cc1ccc(Cn2c(N3CC[C@@H](F)[C@H](N)C3)nc3ccc(C(F)(F)F)nc32)nc1 [Example 453, 6-((2-((3R,4R)-3-amino-4-fluoropiperidin-1-yl)-5-(trifluoromethyl)-3H-imidazo[4,5-b]pyridin-3-yl)methyl)nicotinonitrile] | 1.51
24 | N[C@@H]1CCCN(c2nc3ccccc3n2Cc2ccc(F)cc2F)C1 [Example 389, (R)-1-(1-(2,4-difluorobenzyl)-1H-benzo[d]imidazol-2-yl)piperidin-3-amine] | 4580
25 | CN(CC(F)(F)F)C(=O)Cn1c(N2CCCC3(CCCN3)C2)nc2ccc(F)cc21 (stereo not shown) [Example 472, 2-(6-fluoro-2-(1,7-diazaspiro[4.5]decan-7-yl)-1H-benzo[d]imidazol-1-yl)-N-methyl-N-(2,2,2-trifluoroethyl)acetamide] | 383
